# Laboratory results taken from BindingDB's records for patent US20250059188 (Anaxis Pharma, 2025).
# pKd: −log10 of the molar value.
# Assays:
# Assay in all cases: In Vitro Assay
# [1] = target: T1, Mixed lineage kinase domain-like protein (Homo sapiens, UniProt Q8NB16)
# T1 sequence (Q8NB16 whole entry): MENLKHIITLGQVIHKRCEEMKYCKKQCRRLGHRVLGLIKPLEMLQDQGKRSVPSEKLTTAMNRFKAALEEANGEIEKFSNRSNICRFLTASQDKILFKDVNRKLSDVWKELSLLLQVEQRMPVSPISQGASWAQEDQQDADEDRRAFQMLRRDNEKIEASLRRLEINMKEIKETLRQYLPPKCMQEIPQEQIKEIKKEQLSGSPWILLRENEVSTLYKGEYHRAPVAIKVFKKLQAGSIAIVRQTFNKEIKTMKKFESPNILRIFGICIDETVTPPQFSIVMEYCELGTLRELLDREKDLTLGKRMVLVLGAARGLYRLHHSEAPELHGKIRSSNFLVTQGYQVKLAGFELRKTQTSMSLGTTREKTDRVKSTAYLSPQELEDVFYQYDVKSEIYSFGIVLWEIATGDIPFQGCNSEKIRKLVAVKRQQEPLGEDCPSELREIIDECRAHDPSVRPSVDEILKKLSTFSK
# Description: (§1) For most assays, kinase-tagged T7 phage strains were grown in parallel in 24-well blocks in an E. coli host derived from the BL21 strain. E. coli were grown to log-phase and infected with T7 phage from a frozen stock (multiplicity of infection=0.4) and incubated with shaking at 32° C. until lysis (90-150 minutes). The lysates were centrifuged (6,000×g) and filtered (0.2 μm) to remove cell debris. The remaining kinases were produced in HEK-293 cells and subsequently tagged with DNA for qPCR detection. […] The liganded beads were blocked with excess biotin and washed with blocking buffer (SeaBlock (Pierce), 1% BSA, 0.05% Tween 20, 1 mM DTT) to remove unbound ligand and to reduce non-specific phage binding. […] All reactions were performed in polypropylene 384-well plates in a final volume of 20 μL. […] The kinase concentration in the eluates was measured by qPCR.
# [2] = target: Receptor-interacting serine/threonine-protein kinase 3 (Homo sapiens, UniProt Q9Y572)
# Description: as §1
# [3] = target: T2, Receptor-interacting serine/threonine-protein kinase 1 (Homo sapiens, UniProt Q13546)
# T2 sequence (Q13546 whole entry): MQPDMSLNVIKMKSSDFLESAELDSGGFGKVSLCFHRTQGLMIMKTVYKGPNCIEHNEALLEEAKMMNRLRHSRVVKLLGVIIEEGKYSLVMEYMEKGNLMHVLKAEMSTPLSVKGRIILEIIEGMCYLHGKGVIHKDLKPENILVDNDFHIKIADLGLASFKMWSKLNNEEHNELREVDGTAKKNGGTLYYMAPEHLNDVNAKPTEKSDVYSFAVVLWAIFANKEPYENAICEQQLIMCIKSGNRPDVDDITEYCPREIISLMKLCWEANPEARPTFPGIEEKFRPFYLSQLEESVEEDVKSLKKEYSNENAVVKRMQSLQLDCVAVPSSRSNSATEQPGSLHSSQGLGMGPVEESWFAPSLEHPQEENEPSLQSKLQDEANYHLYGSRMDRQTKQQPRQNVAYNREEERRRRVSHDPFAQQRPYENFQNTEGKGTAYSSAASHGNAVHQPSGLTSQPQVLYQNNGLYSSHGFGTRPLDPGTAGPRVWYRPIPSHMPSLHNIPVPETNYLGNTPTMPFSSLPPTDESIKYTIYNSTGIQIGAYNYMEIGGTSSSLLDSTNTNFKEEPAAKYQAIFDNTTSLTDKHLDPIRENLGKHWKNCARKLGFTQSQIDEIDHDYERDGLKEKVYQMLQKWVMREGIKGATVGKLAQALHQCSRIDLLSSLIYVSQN
# Description: as §1
# Receptor-interacting serine/threonine-protein kinase 3, sequence (Q9Y572 whole entry): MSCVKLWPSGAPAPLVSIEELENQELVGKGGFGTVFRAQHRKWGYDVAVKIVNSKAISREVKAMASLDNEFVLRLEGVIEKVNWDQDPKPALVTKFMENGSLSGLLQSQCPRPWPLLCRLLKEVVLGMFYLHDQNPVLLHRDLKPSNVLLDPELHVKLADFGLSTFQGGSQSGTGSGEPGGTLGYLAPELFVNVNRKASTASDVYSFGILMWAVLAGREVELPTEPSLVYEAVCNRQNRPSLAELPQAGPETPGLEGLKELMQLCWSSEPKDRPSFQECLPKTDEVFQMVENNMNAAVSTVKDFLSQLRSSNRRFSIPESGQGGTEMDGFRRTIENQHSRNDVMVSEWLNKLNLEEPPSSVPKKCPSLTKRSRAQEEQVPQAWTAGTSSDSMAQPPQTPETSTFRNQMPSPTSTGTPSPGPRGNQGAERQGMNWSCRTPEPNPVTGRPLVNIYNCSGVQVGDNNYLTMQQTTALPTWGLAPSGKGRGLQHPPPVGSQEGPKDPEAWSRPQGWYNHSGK
pKd [1],pKd [2],pKd [3],SMILES
> 9.00,< 5.00,< 5.00,"Cn1nc(-c2ccc(NS(=O)(=O)C(F)F)c(OCc3ccc(F)cc3)c2)c2c(N)ncc(-c3ccncc3)c21 [US20250059188, Compound 14]"
> 9.00,< 5.00,< 5.00,"COc1ccc([C@H](C)Oc2cc(-c3nn(C)c4c(-c5cnn(C6CCOCC6)c5)cnc(N)c34)ccc2NS(=O)(=O)C(F)F)cc1 [US20250059188, Compound 129]"
,< 5.00,< 5.00,"C[C@H](Oc1cc(-c2nn(C)c3c(-c4cnn(C5CCN(C)C(C(F)F)C5)c4)cnc(N)c23)ccc1NS(=O)(=O)C(F)F)c1ccc(F)cc1 (some centres undefined) [US20250059188, Compound 158]"
> 9.00,< 5.00,< 5.00,"C[C@H](Oc1cc(-c2nn(C)c3c(-c4cnn(C5CCC(N(C)C)C5)c4)cnc(N)c23)ccc1NS(=O)(=O)C(F)F)c1ccc(F)cc1 (some centres undefined) [US20250059188, Compound 168]"
> 9.00,< 5.00,< 5.00,"C[C@H](Oc1cc(C2C=NN3C=CN=C(N)C23)ccc1NS(=O)(=O)C(F)F)c1ccc(F)cc1 (some centres undefined) [US20250059188, Compound 22]"
